According to patent publication US6759546B1, “3,5-di-iso-propyl-heptatrienoic acid derivatives having serum glucose reducing activity” (Allergan, Inc., priority 2003, dated 2004):
Residue numbers refer to the chain shown, from its start. Where two headings read alike, the source gives them in different places. One block for each molecule: values may come before it.

Legend:
[1] = tested on: female diabetic db/db mice; experiment: serum glucose, triglyceride and thyroxine levels in db/db mice; type: in vivo; details: for Glucose Day 0 / Triglycerides Day 0: day 0 (pre-treatment)
Method: An assay described below tests the effect of compounds of the invention on serum glucose, tryglyceride and thyroxine levels in female 9-10 weeks old db/db mice.
Blood samples (70 μl) were taken by orbital bleeding at 11:00 AM on day 0 (pre-treatment), day 3, and day 6. On day 7, a blood sample (700 μl) was taken at 11:00 AM and the animals were sacrificed. Glucose, triglyceride and thyroxine (T4) levels were determined on a Boehringer Manheim Hatachi Clinical Chemistry Analyzer using standard protocols provided by the manufacturer and reagents that were supplied in commercially available kits (glucose and T4: Boehringer Manheim; triglycerides: Roche Diagnostics). Seven animals were treated in each group.

[2] = molecular target: T1, RXRα (Homo sapiens, UniProt P19793); experiment: holoreceptor transactivation assay; type: cell-based; details: for RXR Trans. efficacy α: percentage compared to the standard compound; for EC50: holoreceptor assay, read-out: RXR Trans. EC50 α
T1 construct: expressed in transfected cells
T1 sequence (P19793 1-462): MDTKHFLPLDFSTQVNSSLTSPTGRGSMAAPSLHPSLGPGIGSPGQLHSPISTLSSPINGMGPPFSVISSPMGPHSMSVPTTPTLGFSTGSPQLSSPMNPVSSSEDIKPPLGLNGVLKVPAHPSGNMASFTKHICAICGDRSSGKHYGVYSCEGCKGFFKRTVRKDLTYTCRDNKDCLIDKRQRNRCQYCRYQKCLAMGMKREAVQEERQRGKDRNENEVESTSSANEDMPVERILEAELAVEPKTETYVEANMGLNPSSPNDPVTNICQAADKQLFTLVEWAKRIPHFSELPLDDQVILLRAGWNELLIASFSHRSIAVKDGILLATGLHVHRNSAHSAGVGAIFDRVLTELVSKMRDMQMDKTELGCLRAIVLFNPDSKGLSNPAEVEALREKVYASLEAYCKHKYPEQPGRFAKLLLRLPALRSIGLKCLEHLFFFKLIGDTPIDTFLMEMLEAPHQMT
Excerpt: (§1) The results obtained in this assay are expressed in EC50 numbers, as they are also in the chimeric receptor transactivation assay.
(§2) Particularly, the transactivation data pertaining to activation of the RAR receptors were obtained in the chimeric assay, and the transactivation data pertaining to the activation of RXR receptors were obtained in the holoreceptor assay.

[3] = molecular target: T2, RXRβ (UniProt P28704); experiment: holoreceptor transactivation assay
T2 sequence (P28704 1-520): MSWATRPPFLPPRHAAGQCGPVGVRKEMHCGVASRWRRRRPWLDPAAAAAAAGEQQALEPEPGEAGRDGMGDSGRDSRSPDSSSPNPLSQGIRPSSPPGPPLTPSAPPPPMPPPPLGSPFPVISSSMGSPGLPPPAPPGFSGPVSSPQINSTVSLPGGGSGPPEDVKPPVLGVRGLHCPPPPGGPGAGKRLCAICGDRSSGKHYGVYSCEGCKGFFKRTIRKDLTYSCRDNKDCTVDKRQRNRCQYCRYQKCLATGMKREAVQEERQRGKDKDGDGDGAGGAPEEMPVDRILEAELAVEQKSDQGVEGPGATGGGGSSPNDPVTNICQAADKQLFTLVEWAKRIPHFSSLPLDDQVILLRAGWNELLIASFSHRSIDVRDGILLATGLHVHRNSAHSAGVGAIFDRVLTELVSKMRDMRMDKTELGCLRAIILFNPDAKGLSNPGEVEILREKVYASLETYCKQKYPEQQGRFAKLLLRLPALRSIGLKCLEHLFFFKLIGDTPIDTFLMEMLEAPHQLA
Excerpt: as §1, §2

[4] = molecular target: T3, RXRγ (UniProt P28705); experiment: holoreceptor transactivation assay; details: percentage compared to the standard compound
T3 sequence (P28705 1-463): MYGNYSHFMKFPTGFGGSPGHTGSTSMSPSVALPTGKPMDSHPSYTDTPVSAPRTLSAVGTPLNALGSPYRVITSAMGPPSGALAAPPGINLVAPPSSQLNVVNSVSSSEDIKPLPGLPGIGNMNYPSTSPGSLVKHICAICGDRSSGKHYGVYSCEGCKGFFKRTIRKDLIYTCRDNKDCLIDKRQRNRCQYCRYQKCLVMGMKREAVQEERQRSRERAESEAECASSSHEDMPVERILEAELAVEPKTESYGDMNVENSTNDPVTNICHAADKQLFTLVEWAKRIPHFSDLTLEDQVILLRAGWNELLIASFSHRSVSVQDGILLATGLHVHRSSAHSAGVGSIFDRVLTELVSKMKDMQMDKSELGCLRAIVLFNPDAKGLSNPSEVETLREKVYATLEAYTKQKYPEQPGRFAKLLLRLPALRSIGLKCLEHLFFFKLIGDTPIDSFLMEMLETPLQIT
Excerpt: as §1, §2

[5] = molecular target: T1, RXRα; experiment: ligand binding assay; details: read-out: RXR Bind. Ki α
Excerpt: (§3) The results of the ligand binding assay are expressed in Ki numbers.

[6] = molecular target: T4, RARγ (Homo sapiens, UniProt P13631); experiment: ligand binding assay; details: read-out: RAR Bind. Ki γ
T4 sequence (P13631 1-454): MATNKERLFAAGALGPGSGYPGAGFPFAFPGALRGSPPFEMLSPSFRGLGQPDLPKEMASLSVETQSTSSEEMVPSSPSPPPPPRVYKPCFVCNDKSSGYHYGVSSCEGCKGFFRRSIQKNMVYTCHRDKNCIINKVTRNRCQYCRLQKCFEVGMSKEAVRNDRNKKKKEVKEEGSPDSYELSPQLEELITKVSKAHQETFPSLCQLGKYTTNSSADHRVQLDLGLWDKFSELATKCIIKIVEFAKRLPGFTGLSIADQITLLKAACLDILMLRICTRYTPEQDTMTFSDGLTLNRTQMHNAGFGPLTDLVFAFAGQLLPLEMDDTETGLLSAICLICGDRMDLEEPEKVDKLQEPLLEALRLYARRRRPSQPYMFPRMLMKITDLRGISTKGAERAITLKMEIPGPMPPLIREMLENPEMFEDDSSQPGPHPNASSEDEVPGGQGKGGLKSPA
Excerpt: as §3

[7] = molecular target: T5, RARα (Homo sapiens, UniProt P10276); experiment: ligand binding assay; details: read-out: RAR Bind. Ki α
T5 sequence (P10276 1-462): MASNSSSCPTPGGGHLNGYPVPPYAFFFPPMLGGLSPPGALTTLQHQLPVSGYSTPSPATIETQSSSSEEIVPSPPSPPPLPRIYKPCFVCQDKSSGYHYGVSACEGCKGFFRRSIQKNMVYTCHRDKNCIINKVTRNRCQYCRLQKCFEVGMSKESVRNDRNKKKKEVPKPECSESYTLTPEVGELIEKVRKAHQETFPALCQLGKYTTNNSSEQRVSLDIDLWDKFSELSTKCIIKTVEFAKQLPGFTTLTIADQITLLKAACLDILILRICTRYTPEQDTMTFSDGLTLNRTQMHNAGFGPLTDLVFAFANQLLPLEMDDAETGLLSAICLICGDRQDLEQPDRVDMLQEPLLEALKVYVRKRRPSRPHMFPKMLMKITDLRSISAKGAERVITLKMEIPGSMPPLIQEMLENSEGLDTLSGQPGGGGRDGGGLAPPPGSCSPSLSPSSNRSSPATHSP
Excerpt: as §3

[8] = molecular target: T6, RXRβ (Homo sapiens, UniProt P28702); experiment: ligand binding assay; details: read-out: RXR Bind. Ki β
T6 sequence (P28702 1-533): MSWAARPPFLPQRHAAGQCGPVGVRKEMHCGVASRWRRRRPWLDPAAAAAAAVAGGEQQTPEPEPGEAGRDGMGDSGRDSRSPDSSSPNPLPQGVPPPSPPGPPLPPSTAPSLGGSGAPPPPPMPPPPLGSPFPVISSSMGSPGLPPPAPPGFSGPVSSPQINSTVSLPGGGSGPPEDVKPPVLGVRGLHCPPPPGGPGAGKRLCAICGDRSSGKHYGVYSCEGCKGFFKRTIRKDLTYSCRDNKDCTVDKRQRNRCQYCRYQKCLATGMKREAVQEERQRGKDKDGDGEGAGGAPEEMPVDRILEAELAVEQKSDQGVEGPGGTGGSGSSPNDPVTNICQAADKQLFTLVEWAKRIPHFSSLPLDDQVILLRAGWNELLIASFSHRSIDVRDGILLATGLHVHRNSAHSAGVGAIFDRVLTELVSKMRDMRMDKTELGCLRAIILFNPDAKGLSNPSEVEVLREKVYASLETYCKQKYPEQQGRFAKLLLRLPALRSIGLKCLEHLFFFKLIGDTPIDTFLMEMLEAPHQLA
Excerpt: as §3

[9] = molecular target: T7, RARβ (Homo sapiens, UniProt P10826); experiment: ligand binding assay; details: read-out: RAR Bind. Ki β
T7 sequence (P10826 1-455): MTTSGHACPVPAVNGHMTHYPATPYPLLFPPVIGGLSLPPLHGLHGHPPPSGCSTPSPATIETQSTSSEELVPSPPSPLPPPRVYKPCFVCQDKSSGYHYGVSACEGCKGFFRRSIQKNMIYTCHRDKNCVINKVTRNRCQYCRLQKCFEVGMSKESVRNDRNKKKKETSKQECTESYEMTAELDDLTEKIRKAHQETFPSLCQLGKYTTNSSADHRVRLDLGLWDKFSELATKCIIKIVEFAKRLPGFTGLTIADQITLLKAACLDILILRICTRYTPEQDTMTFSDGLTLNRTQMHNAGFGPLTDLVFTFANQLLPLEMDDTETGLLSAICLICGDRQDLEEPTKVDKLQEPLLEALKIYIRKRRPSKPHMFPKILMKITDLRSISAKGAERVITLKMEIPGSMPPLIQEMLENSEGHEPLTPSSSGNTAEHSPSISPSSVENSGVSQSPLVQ
Excerpt: as §3

[10] = molecular target: T8, RXRγ (Homo sapiens, UniProt P48443); experiment: ligand binding assay; details: read-out: RXR Bind. Ki γ
T8 sequence (P48443 1-463): T3 sequence (P28705 1-463) with T13A, F15Y, V31A, P34S, S228T, S230G, V258M, S450T
Excerpt: as §3

[11] = Table 2, 5 mg/kg oral gavage daily
[12] = Table 3, 5 mg/kg oral gavage daily
[13] = Table 2, 50 mg/kg oral gavage daily
[14] = percentage compared to the standard compound
[15] = Table 3, 50 mg/kg oral gavage daily

- T4 Day 7 [1, 11]: 1.2 µg/dL
- T4 Day 7 [1, 12]: 1.4 µg/dL
- effect on serum thyroxine levels ([1]; diabetic mammals, summary in words): reducing serum thyroxine levels
- RXR Trans. efficacy α [2]: 100%
- RXR Trans. efficacy β [3]: 0.4 (100) 1%
Compound: CC(/C=C/[C@@H]1C[C@]1(C)c1ccc2c(c1)C(C)(C)CCC2(C)C)=C\C(=O)O [Standard compound]
- Glucose Day 0 [1, 11]: 378 mg/dL
- Triglycerides Day 0 [1, 11]: 171 mg/dL
- Glucose Day 3, 3 h [1, 11]: 308 mg/dL
- Triglycerides Day 3, 3 h [1, 11]: 472 mg/dL
- Glucose Day 6, 3 h [1, 11]: 333 mg/dL
- Glucose Day 0 [1, 12]: 409 mg/dL
- Triglycerides Day 0 [1, 12]: 193 mg/dL
- Glucose Day 3, 3 h [1, 12]: 369 mg/dL
- Triglycerides Day 3, 3 h [1, 12]: 50 mg/dL
- Glucose Day 6, 3 h [1, 12]: 378 mg/dL

- RXR Trans. efficacy γ [4]: 25%
- T4 Day 7 [1, 13]: 2.2 µg/dL
- Ki [5]: 1 nM
- EC50 [2]: 0.4 nM
- RXR Trans. efficacy α [2]: 34%
- Ki [6]: 550 nM
- Ki [7]: 310 nM
- Ki [8]: 12 nM
- Ki [9]: 200 nM
- Ki [10]: 21 nM
- RXR Trans. efficacy β [3, 14]: 33%
Compound: CCCOc1c(\C(C)=C/C=C/C(C)=C/C(=O)O)cc(C(C)C)cc1C(C)C [Compound 16, 7-(3,5-Diisopropyl-2-propoxy-phenyl)-3-methyl-octa-2,4,6-trienoic acid]
- Glucose Day 0 [1, 13]: 365 mg/dL
- Triglycerides Day 0 [1, 13]: 199 mg/dL
- Glucose Day 3, 3 h [1, 13]: 283 mg/dL
- Triglycerides Day 3, 3 h [1, 13]: 189 mg/dL
- Glucose Day 6, 3 h [1, 13]: 309 mg/dL

- RXR Trans. efficacy γ [4]: 21%
- T4 Day 7 [1, 15]: 3.0 µg/dL
- Ki [5]: 1 nM
- EC50 [2]: 1 nM
- RXR Trans. efficacy α [2]: 33%
- Ki [6]: 310 nM
- Ki [7]: 170 nM
- Ki [8]: 12 nM
- Ki [9]: 80 nM
- RXR Trans. efficacy β [3, 14]: 29%
Compound: CCCOc1c(\C(=C/C=C/C(C)=C/C(=O)O)CC)cc(C(C)C)cc1C(C)C [Compound 8, 7-(3,5-Diisopropyl-2-propoxy-phenyl)-3-methyl-nona-2,4,6-trienoic acid]
- Glucose Day 0 [1, 15]: 468 mg/dL
- Triglycerides Day 0 [1, 15]: 173 mg/dL
- Glucose Day 3, 3 h [1, 15]: 443 mg/dL
- Triglycerides Day 3, 3 h [1, 15]: 278 mg/dL
- Glucose Day 6, 3 h [1, 15]: 384 mg/dL
